Data published in publication PMC2248166, “Quantitative peptide binding motifs for 19 human and mouse MHC class I molecules derived using positional scanning combinatorial peptide libraries” (Immunome Research, 2008).
Where a SMILES comes first, the peptide text is derived from it.

Biological target: HLA B*0801 (Homo sapiens, UniProt P01889, A93T/A95T/D138N/E176V/E187T/K202T/Q94N/R180D/S35A/V36M/Y33D/Y91F)
Experiment: biochemical
Format: binding

Row | Compound | IC50 [nM]
1 | CC[C@H](C)[C@H](N)C(=O)N[C@@H](CC(C)C)C(=O)N[C@@H](CCCNC(=N)N)C(=O)N[C@@H](CCCCN)C(=O)N[C@H](C(=O)N[C@@H](Cc1ccccc1)C(=O)N[C@@H](Cc1ccc(O)cc1)C(=O)N[C@@H](CO)C(=O)N[C@H](C(=O)O)C(C)C)[C@@H](C)CC [3102.0538] (H-ILRKIFYSV-OH) | 0.1
2 | CC[C@H](C)[C@H](NC(=O)[C@H](Cc1ccc(O)cc1)NC(=O)[C@H](CCSC)NC(=O)[C@H](CC(C)C)NC(=O)[C@@H](N)CCC(=O)O)C(=O)N[C@@H](Cc1ccccc1)C(=O)N[C@@H](C)C(=O)N[C@@H](C)C(=O)N[C@@H](CC(C)C)C(=O)O [3102.0539] (H-ELMYIFAAL-OH) | 30
3 | CC[C@H](C)[C@H](NC(=O)[C@H](CO)NC(=O)[C@H](CC(C)C)NC(=O)[C@H](CCSC)NC(=O)[C@H](CO)NC(=O)[C@H](CCCNC(=N)N)NC(=O)[C@@H]1CCCN1C(=O)[C@@H](N)Cc1ccccc1)C(=O)N[C@@H](Cc1ccccc1)C(=O)O [3102.0543] (H-FPRSMLSIF-OH) | 9.9
4 | CSCC[C@H](N)C(=O)N[C@@H](CCCNC(=N)N)C(=O)N[C@@H](Cc1ccccc1)C(=O)N[C@@H](CCCCN)C(=O)N[C@@H](CCCCN)C(=O)N[C@@H](CCC(=O)O)C(=O)N[C@@H](CO)C(=O)N[C@@H](CO)C(=O)N[C@@H](CC(C)C)C(=O)O [3102.0545] (H-MRFKKESSL-OH) | 3.4
5 | CC[C@H](C)[C@H](NC(=O)[C@H](CO)NC(=O)[C@H](CC(C)C)NC(=O)[C@H](CC(C)C)NC(=O)[C@H](CCCNC(=N)N)NC(=O)[C@H](CCSC)NC(=O)[C@H](CCC(=O)O)NC(=O)[C@H](C)NC(=O)[C@@H](N)CO)C(=O)O [3102.0547] (H-SAEMRLLSI-OH) | 21
6 | CC(C)C[C@H](NC(=O)[C@H](CC(N)=O)NC(=O)[C@H](Cc1ccc(O)cc1)NC(=O)[C@H](Cc1ccccc1)NC(=O)[C@H](Cc1c[nH]cn1)NC(=O)[C@H](CC(=O)O)NC(=O)[C@H](CCCNC(=N)N)NC(=O)[C@H](CC(C)C)NC(=O)[C@@H](N)Cc1ccc(O)cc1)C(=O)O [3102.0548] (H-YLRDHFYNL-OH) | 8.3
7 | CC[C@H](C)[C@H](NC(=O)CNC(=O)[C@H](Cc1c[nH]cn1)NC(=O)[C@H](CCCNC(=N)N)NC(=O)[C@H](CCC(N)=O)NC(=O)[C@H](CC(C)C)NC(=O)[C@H](CCCCN)NC(=O)[C@@H](N)CO)C(=O)N[C@@H](CC(C)C)C(=O)O [3102.0549] (H-SKLQRHGIL-OH) | 16
8 | CC[C@H](C)[C@H](NC(=O)[C@@H](N)CO)C(=O)N[C@@H](Cc1c[nH]cn1)C(=O)N[C@@H](CCC(=O)O)C(=O)N[C@@H](CCCCN)C(=O)N[C@@H](Cc1ccccc1)C(=O)N[C@@H](Cc1c[nH]c2ccccc12)C(=O)N1CCC[C@H]1C(=O)N[C@@H](CC(C)C)C(=O)O [3102.0550] (H-SIHEKFWPL-OH) | 1.4
9 | CC[C@H](C)[C@H](NC(=O)[C@H](Cc1ccc(O)cc1)NC(=O)[C@H](C)NC(=O)[C@@H]1CCCN1C(=O)[C@@H](N)CCSC)C(=O)N[C@@H](CCCNC(=N)N)C(=O)N[C@@H](CC(N)=O)C(=O)N[C@H](C(=O)N[C@@H](CC(C)C)C(=O)O)[C@@H](C)O [3102.0553] | 1.4
10 | CC(C)[C@H](NC(=O)[C@H](Cc1ccccc1)NC(=O)[C@H](CS)NC(=O)[C@@H](NC(=O)[C@H](CCCCN)NC(=O)[C@H](CCCCN)NC(=O)[C@H](CCCCN)NC(=O)[C@H](CO)NC(=O)[C@@H](N)Cc1ccccc1)C(C)C)C(=O)O [3102.0556] (H-FSKKKVCFV-OH) | 6
11 | CSCC[C@H](NC(=O)[C@H](C)NC(=O)[C@@H](NC(=O)[C@@H](N)C(C)C)C(C)C)C(=O)N[C@@H](CCCNC(=N)N)C(=O)N[C@@H](Cc1c[nH]cn1)C(=O)N[C@@H](CC(C)C)C(=O)N[C@@H](CO)C(=O)N[C@@H](CC(C)C)C(=O)O [3102.0557] (H-VVAMRHLSL-OH) | 0.98
12 | CC[C@H](C)[C@H](NC(=O)[C@H](CCCNC(=N)N)NC(=O)[C@H](CCCCN)NC(=O)[C@H](CCSC)NC(=O)[C@@H](NC(=O)[C@@H](N)CC(N)=O)C(C)C)C(=O)N[C@@H](CC(N)=O)C(=O)N[C@@H](CS)C(=O)N[C@@H](Cc1ccccc1)C(=O)O [3102.0558] (H-NVMKRINCF-OH) | 20
13 | CC[C@H](C)[C@H](NC(=O)[C@H](Cc1ccccc1)NC(=O)[C@H](Cc1ccccc1)NC(=O)[C@@H](N)CCSC)C(=O)N[C@@H](CCCNC(=N)N)C(=O)N[C@@H](Cc1ccccc1)C(=O)NCC(=O)N[C@@H](CCCCN)C(=O)N[C@@H](CCSC)C(=O)O [3102.0559] (H-MFFIRFGKM-OH) | 32
14 | CSCC[C@H](NC(=O)[C@H](C)NC(=O)[C@H](CC(C)C)NC(=O)[C@H](CO)NC(=O)[C@H](CCCCN)NC(=O)[C@H](CCSC)NC(=O)[C@H](CCCNC(=N)N)NC(=O)[C@H](CCCCN)NC(=O)[C@@H](N)CC(=O)O)C(=O)O [3102.0560] (H-DKRMKSLAM-OH) | 9.9
15 | CC[C@H](C)[C@H](NC(=O)[C@H](C)NC(=O)[C@H](CC(C)C)NC(=O)[C@@H](NC(=O)[C@H](CCCCN)NC(=O)[C@H](CCCNC(=N)N)NC(=O)[C@H](CCCCN)NC(=O)[C@H](CC(N)=O)NC(=O)[C@@H](N)CO)C(C)C)C(=O)O [3102.0561] (H-SNKRKVLAI-OH) | 1.9
16 | CC(C)C[C@H](NC(=O)[C@H](CS)NC(=O)[C@H](CCC(=O)O)NC(=O)[C@H](CCCCN)NC(=O)[C@H](Cc1c[nH]cn1)NC(=O)[C@H](CC(C)C)NC(=O)[C@H](CCCNC(=N)N)NC(=O)[C@H](CC(N)=O)NC(=O)[C@@H](N)CCC(=O)O)C(=O)O [3102.0562] (H-ENRLHKECL-OH) | 73
17 | C[C@H](NC(=O)[C@H](CCCCN)NC(=O)[C@H](Cc1ccccc1)NC(=O)[C@H](CCCCN)NC(=O)[C@H](CC(=O)O)NC(=O)[C@H](CCCNC(=N)N)NC(=O)[C@H](CC(N)=O)NC(=O)[C@@H](N)Cc1ccc(O)cc1)C(=O)N[C@@H](Cc1ccccc1)C(=O)O [3102.0564] (H-YNRDKFKAF-OH) | 20
18 | CC(C)C[C@H](NC(=O)[C@H](Cc1ccccc1)NC(=O)[C@H](C)NC(=O)[C@H](Cc1ccccc1)NC(=O)[C@H](CCCNC(=N)N)NC(=O)[C@H](Cc1ccc(O)cc1)NC(=O)[C@H](CCCNC(=N)N)NC(=O)[C@H](CC(N)=O)NC(=O)[C@@H](N)CC(N)=O)C(=O)O [3102.0568] (H-NNRYRFAFL-OH) | 31
19 | CC(C)[C@H](NC(=O)[C@H](CC(N)=O)NC(=O)[C@H](C)NC(=O)[C@H](Cc1ccccc1)NC(=O)[C@H](CCCCN)NC(=O)[C@H](CCCCN)NC(=O)[C@H](Cc1c[nH]cn1)NC(=O)[C@H](CCCNC(=N)N)NC(=O)[C@@H](N)CC(N)=O)C(=O)O [3102.0572] (H-NRHKKFANV-OH) | 36
20 | CC[C@H](C)[C@H](NC(=O)[C@@H]1CCCN1C(=O)[C@@H](NC(=O)[C@H](Cc1c[nH]cn1)NC(=O)[C@H](Cc1ccc(O)cc1)NC(=O)[C@H](CCCCN)NC(=O)[C@H](CCCNC(=N)N)NC(=O)[C@@H](N)Cc1ccc(O)cc1)C(C)C)C(=O)N[C@@H](CCSC)C(=O)O [3102.0573] (H-YRKYHVPIM-OH) | 62
21 | CC[C@H](C)[C@H](NC(=O)[C@H](CCCNC(=N)N)NC(=O)[C@H](CCCNC(=N)N)NC(=O)[C@H](CCSC)NC(=O)[C@H](CC(C)C)NC(=O)[C@H](C)NC(=O)[C@@H](N)CC(N)=O)C(=O)N[C@@H](C)C(=O)N[C@H](C(=O)O)C(C)C [3102.0577] (H-NALMRRIAV-OH) | 17
22 | CC[C@H](C)[C@H](NC(=O)[C@H](Cc1ccc(O)cc1)NC(=O)[C@@H](NC(=O)[C@H](CCCCN)NC(=O)[C@H](CCCCN)NC(=O)[C@H](Cc1ccccc1)NC(=O)[C@H](CCCNC(=N)N)NC(=O)[C@@H](N)CO)C(C)C)C(=O)N[C@@H](CC(C)C)C(=O)O [3102.0579] (H-SRFKKVYIL-OH) | 76
23 | CC[C@H](C)[C@H](NC(=O)[C@H](Cc1c[nH]cn1)NC(=O)[C@H](Cc1ccccc1)NC(=O)[C@H](CCCCN)NC(=O)[C@H](CC(C)C)NC(=O)[C@H](CCCNC(=N)N)NC(=O)[C@H](CS)NC(=O)[C@@H](N)Cc1c[nH]c2ccccc12)C(=O)N[C@H](C(=O)O)C(C)C [3102.0584] (H-WCRLKFHIV-OH) | 82
24 | CC[C@H](C)[C@H](NC(=O)[C@H](CO)NC(=O)[C@@H](NC(=O)[C@H](CC(C)C)NC(=O)[C@H](CCCCN)NC(=O)[C@H](CCSC)NC(=O)[C@H](CCCCN)NC(=O)[C@@H](NC(=O)[C@@H](N)CO)[C@@H](C)CC)C(C)C)C(=O)O [3102.0585] (H-SIKMKLVSI-OH) | 16
25 | CSCC[C@H](NC(=O)[C@H](CCC(N)=O)NC(=O)[C@@H](N)CO)C(=O)N[C@@H](CCC(=O)O)C(=O)N[C@@H](CCCNC(=N)N)C(=O)N[C@@H](Cc1ccccc1)C(=O)N[C@@H](CC(N)=O)C(=O)N[C@@H](CS)C(=O)N[C@@H](CO)C(=O)O [3102.0586] (H-SQMERFNCS-OH) | 39
26 | CC(C)C[C@H](NC(=O)[C@H](Cc1ccccc1)NC(=O)[C@H](Cc1ccc(O)cc1)NC(=O)[C@H](CC(C)C)NC(=O)[C@H](CCCNC(=N)N)NC(=O)[C@H](CCC(N)=O)NC(=O)[C@H](CC(C)C)NC(=O)[C@H](Cc1ccccc1)NC(=O)[C@@H](N)Cc1ccccc1)C(=O)O [3102.0589] (H-FFLQRLYFL-OH) | 6.8
27 | CC[C@H](C)[C@H](NC(=O)[C@@H](NC(=O)[C@H](CO)NC(=O)[C@H](CCCNC(=N)N)NC(=O)[C@H](CCC(=O)O)NC(=O)[C@H](CCCCN)NC(=O)[C@H](CCSC)NC(=O)[C@@H](N)CCSC)[C@@H](C)O)C(=O)N[C@@H](CC(C)C)C(=O)O [3102.0596] (H-MMKERSTIL-OH) | 35
28 | CC[C@H](C)[C@H](NC(=O)[C@H](CCCNC(=N)N)NC(=O)[C@H](CCC(=O)O)NC(=O)[C@H](CCCCN)NC(=O)[C@H](CCSC)NC(=O)[C@@H](N)CC(C)C)C(=O)N[C@@H](CO)C(=O)N[C@@H](CO)C(=O)N[C@@H](CCC(=O)O)C(=O)O [3102.0597] (H-LMKERISSE-OH) | 82
29 | CC[C@H](C)[C@H](NC(=O)[C@@H]1CCCN1C(=O)[C@H](CCCNC(=N)N)NC(=O)[C@H](CCCNC(=N)N)NC(=O)[C@H](CCC(=O)O)NC(=O)[C@H](CCCCN)NC(=O)[C@H](CCSC)NC(=O)[C@@H](N)[C@@H](C)O)C(=O)N[C@@H](CC(C)C)C(=O)O [3102.0600] (H-TMKERRPIL-OH) | 1.8
30 | CC(C)C[C@H](NC(=O)CNC(=O)[C@@H](N)CC(N)=O)C(=O)N[C@H](C(=O)N[C@@H](CCCNC(=N)N)C(=O)N[C@@H](CC(C)C)C(=O)N[C@@H](CC(N)=O)C(=O)N[C@@H](C)C(=O)N[C@@H](Cc1ccccc1)C(=O)O)C(C)C [3102.0603] (H-NGLVRLNAF-OH) | 57
